Measured values taken from patent US20070099915A1, “INHIBITORS OF THE HIV INTEGRASE ENZYME” (PFIZER INC., priority 2005, published 2007).

Tests used:
[1] = biological target: T1, Full-length wild type HIV-1 integrase (SF1) (Human immunodeficiency virus type 1 group M subtype B, UniProt P04585); test: Integrase strand-transfer scintillation proximity assay; assay type: biochemical; settings: strand-transfer SPA, 246 nM integrase, 50 nM host DNA, 37° C., 50 min; read-out: IC50
T1 construct: made in house; host or cells: E. coli BL21 (DE3)

[2] = system: HIV-1 RF virus in CEM-SS cells; test: HIV-1 cell protection assay (XTT dye reduction); assay type: cell-based; settings: Human immunodeficiency virus 1, 144 h; RF strain of HIV-1, CEM-SS cells, XTT read-out after six days; read-out: EC50
Outline: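 Infected CEM-SS cultures incubated six days, then XTT with phenazine methosulfate added for 4 h; viability read as formazan absorbance at 450 nm. Formazan expressed as percent of uninfected, compound-free cells; CC50 from uninfected treated cells, therapeutic index as CC50/EC50.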

Row | SMILES | IC50 [1] | EC50 [2]
1 | O=c1c2ncc3c(c(COCCOCc4ccccc4)cn3Cc3ccc(F)cc3)c2ccn1O [Example 92, 1-{[2-(benzyloxy)ethoxy]methyl}-3-(4-fluorobenzyl)-7-hydroxy-3,7-dihydro-6H-pyrrolo[2,3-c]-1,7-naphthyridin-6-one] | 3 nM | 10 nM
2 | COCCCc1cn(Cc2ccc(F)cc2)c2cnc3c(c12)CCN(O)C3=O [Example 94, 3-(4-fluorobenzyl)-7-hydroxy-1-(3-methoxypropyl)-3,7,8,9-tetrahydro-6H-pyrrolo[2,3-c]-1,7-naphthyridin-6-one] | 12 nM | 0.25 nM
3 | Cc1cc2c(ncc3c2c(CN2CCN(C)CC2)cn3Cc2ccc(F)cc2)c(=O)n1O [Example 95, 3-(4-fluorobenzyl)-7-hydroxy-8-methyl-1-[(4-methylpiperazin-1-yl)methyl]3,7-dihydro-6H-pyrrolo[2,3-c]-1,7-naphthyridin-6-one] | 14 nM | 0.45 nM
4 | Cc1cc2c(ncc3c2c(CN2CCN(C)C(=O)C2)cn3Cc2ccc(F)cc2)c(=O)n1O [Example 96, 3-(4-fluorobenzyl)-7-hydroxy-8-methyl-1-[(4-methyl-3-oxopiperazin-1-yl)methyl]-3,7-dihydro-6H-pyrrolo[2,3-c]-1,7-naphthyridin-6-one] | 10 nM | 5 nM
5 | CCCN(CCO)Cc1cn(Cc2ccc(F)cc2)c2cnc3c(=O)n(O)c(C)cc3c12 [Example 97, 3-(4-fluorobenzyl)-7-hydroxy-1-{[(2-hydroxyethyl)(propyl)amino]methyl}-8-methyl-3,7-dihydro-6H-pyrrolo[2,3-c]-1,7-naphthyridin-6-one] | 17 nM | 0.69 nM
6 | O=C1c2ncc3c(c(CN4CCCCCC4)cn3Cc3ccc(F)cc3)c2CCN1O [Example 98, 1-(azepan-1-ylmethyl)-3-(4-fluorobenzyl)-7-hydroxy-3,7,8,9-tetrahydro-6H-pyrrolo[2,3-c]-1,7-naphthyridin-6-one] | 38 nM | 13 nM
7 | CC(=O)C1CCN(Cc2cn(Cc3ccc(F)cc3)c3cnc4c(c23)CCN(O)C4=O)CC1 [Example 99, 1-[(4-acetylpiperidin-1-yl)methyl]-3-(4-fluorobenzyl)-7-hydroxy-3,7,8,9-tetrahydro-6H-pyrrolo[2,3-c]-1,7-naphthyridin-6-one] | 22 nM | 5 nM
8 | COC1CCN(Cc2cn(Cc3ccc(F)cc3)c3cnc4c(c23)CCN(O)C4=O)CC1 [Example 100, 3-(4-fluorobenzyl)-7-hydroxy-1-[(4-methoxypiperidin-1-yl)methyl]-3,7,8,9-tetrahydro-6H-pyrrolo[2,3-c]-1,7-naphthyridin-6-one] | 21 nM | 0.7 nM
9 | Cc1cc2c(ncc3c2c(CN2CCCCC2)cn3Cc2ccc(F)cc2)c(=O)n1O [Example 101, 3-(4-fluorobenzyl)-7-hydroxy-8-methyl-1-(piperidin-1-ylmethyl)-3,7-dihydro-6H-pyrrolo[2,3-c]-1,7-naphthyridin-6-one] | 14 nM | 0.46 nM
10 | COCCN(C)Cc1cn(Cc2ccc(F)cc2)c2cnc3c(=O)n(O)c(C)cc3c12 [Example 102, 3-(4-fluorobenzyl)-7-hydroxy-1-{[(2-methoxyethyl)(methyl)amino]methyl}-8-methyl-3,7-dihydro-6H-pyrrolo[2,3-c]-1,7-naphthyridin-6-one] | 13 nM | 0.25 nM
11 | O=C1c2ncc3c(c(CCN4CCCC4)cn3Cc3ccc(F)cc3)c2CCN1O [Example 103, 3-(4-fluorobenzyl)-7-hydroxy-1-(2-(pyrrolidin-1-yl)ethyl)-8,9-dihydro-3H-pyrrolo[2,3-c][1,7]naphthyridin-6(7H)-one] | 24 nM | 18 nM
12 | CN(C)CCc1cn(Cc2ccc(F)cc2)c2cnc3c(c12)CCN(O)C3=O [Example 104, 3-(4-fluorobenzyl)-1-(2-(dimethylamino)ethyl)-7-hydroxy-8,9-dihydro-3H-pyrrolo[2,3-c][1,7]naphthyridin-6(7H)-one] | 24 nM | 32 nM
13 | CN(CCCc1cn(Cc2ccc(F)cc2)c2cnc3c(c12)CCN(O)C3=O)CC1CCOCC1 [Example 105, 3-(4-fluorobenzyl)-7-hydroxy-1-{3-[methyl(tetrahydro-2H-pyran-4-ylmethyl)amino]propyl}-3,7,8,9-tetrahydro-6H-pyrrolo[2,3-c]-1,7-naphthyridin-6-one] | 24 nM | 16 nM
14 | COCCOCCCc1cn(Cc2ccc(F)cc2)c2cnc3c(c12)CCN(O)C3=O [Example 106, 3-(4-fluorobenzyl)-7-hydroxy-1-[3-(2-methoxyethoxy)propyl]-3,7,8,9-tetrahydro-6H-pyrrolo[2,3-c]-1,7-naphthyridin-6-one] | 14 nM | 0.95 nM
15 | CN(CCc1cn(Cc2ccc(F)cc2)c2cnc3c(c12)CCN(O)C3=O)C1CCOCC1 [Example 108, 3-(4-fluorobenzyl)-7-hydroxy-1-(2-(methyl(tetrahydro-2H-pyran-4-yl)amino)ethyl)-8,9-dihydro-3H-pyrrolo[2,3-c][1,7]naphthyridin-6(7H)-one] | 21 nM | 16 nM
16 | O=C1c2ncc3c(c(CCN4CCC(F)(F)C4)cn3Cc3ccc(F)cc3)c2CCN1O [Example 109, 3-(4-fluorobenzyl)-1-(2-(3,3-difluoropyrrolidin-1-yl)ethyl)-7-hydroxy-8,9-dihydro-3H-pyrrolo[2,3-c][1,7]naphthyridin-6(7H)-one] | 14 nM | 1 nM
17 | O=C1c2ncc3c(c(CCO)cn3Cc3ccc(F)cc3)c2CCN1O [Example 110, 3-(4-fluorobenzyl)-7-hydro-1-(2-hydroxyethyl)-8,9-dihydro-3H-pyrrolo[2,3-c][1,7]naphthyridin-6(7H)-one] | 11 nM | 5 nM
18 | O=C1c2ncc3c(c(CCN4CCOCC4)cn3Cc3ccc(F)cc3)c2CCN1O [Example 111, 3-(4-fluorobenzyl)-7-hydroxy-1-(2-morpholinoethyl)-8,9-dihydro-3H-pyrrolo[2,3-c][1,7]naphthyridin-6(7H)-one] | 12 nM | 4 nM
19 | O=C1c2ncc3c(c(CCNC4CCOCC4)cn3Cc3ccc(F)cc3)c2CCN1O [Example 112, 3-(4-flourobenzyl)-7-hydroxy-1-(2-(tetrahydro-2H-pyran-4-ylamino)ethyl)-8,9-dihydro-3H-pyrrolo[2,3-c][1,7]naphthyridin-6(7H)-one] | 28 nM | 63 nM
20 | CN(CCc1cn(Cc2ccc(F)cc2)c2cnc3c(c12)CCN(O)C3=O)CC(F)(F)F [Example 113, 3-(4-fluorobenzyl)-7-hydroxy-1-{2-[methyl(2,2,2-trifluoroethyl)amino]ethyl}-3,7,8,9-tetrahydro-6H-pyrrolo[2,3-c]-1,7-naphthyridin-6-one] | 15 nM | 2 nM
21 | CN(CCc1cn(Cc2ccc(F)cc2)c2cnc3c(c12)CCN(O)C3=O)CC1CC1 [Example 114] | 19 nM | 10 nM
22 | O=C1c2ncc3c(c(CCNCC(F)(F)F)cn3Cc3ccc(F)cc3)c2CCN1O [Example 115, 3-(4-fluorobenzyl)-7-hydroxy-1-{2-[(2,2,2-trifluoroethyl)amino]ethyl}-3,7,8,9-tetrahydro-6H-pyrrolo[2,3-c]-1,7-naphthyridin-6-one] | 14 nM | 2 nM
23 | O=C1c2ncc3c(c(CCNCCC(F)(F)F)cn3Cc3ccc(F)cc3)c2CCN1O [Example 117, 3-(4-fluorobenzyl)-7-hydroxy-1-{2-[(3,3,3-trifluoropropyl)amino]ethyl}-3,7,8,9-tetrahydro-6H-pyrrolo[2,3-c]-1,7-naphthyridin-6-one] | 17 nM | 6 nM
24 | COCCN(C)CCc1cn(Cc2ccc(F)cc2)c2cnc3c(c12)CCN(O)C3=O [Example 118, 3-(4-fluorobenzyl)-7-hydroxy-1-{2-[(2-methoxyethyl)(methyl)amino]ethyl}-3,7,8,9-tetrahydro-6H-pyrrolo[2,3-c]-1,7-naphthyridin-6-one] | 20 nM | 13 nM
25 | CN1CCN(CCc2cn(Cc3ccc(F)cc3)c3cnc4c(c23)CCN(O)C4=O)CC1=O [Example 119, 3-(4-fluorobenzyl)-7-hydroxy-1-[2-(4-methyl-3-oxopiperazin-1-yl)ethyl]-3,7,8,9-tetrahydro-6H-pyrrolo[2,3-c]-1,7-naphthyridin-6-one] | 12 nM | 70 nM
26 | O=C1c2ncc3c(c(CCCO)cn3Cc3ccc(F)cc3)c2CCN1O [Example 120, 3-(4-fluorobenzyl)-7-hydroxy-1-(3-hydroxypropyl)-3,7,8,9-tetrahydro-6H-pyrrolo[2,3-c]-1,7-naphthyridin-6-one] | 13 nM | 9 nM
27 | COC(C)(C)CCc1cn(Cc2ccc(F)cc2)c2cnc3c(c12)CCN(O)C3=O [Example 121, 3-(4-fluorobenzyl)-7-hydroxy-1-(3-methoxy-3-methylbutyl)-3,7,8,9-tetrahydro-6H-pyrrolo[2,3-c]-1,7-naphthyridin-6-one] | 14 nM | 0.4 nM
28 | CN(CCCc1cn(Cc2ccc(F)cc2)c2cnc3c(c12)CCN(O)C3=O)Cc1ccccn1 [Example 122, 3-(4-fluorobenzyl)-7-hydroxy-1-{3-[methyl(pyridin-2-ylmethyl)amino]propyl}-3,7,8,9-tetrahydro-6H-pyrrolo[2,3-c]-1,7-naphthyridin-6-one] | 26 nM | 5 nM
29 | CC(C)CN(C)Cc1cn(Cc2ccc(F)cc2)c2cnc3c(c12)CCN(O)C3=O [Example 123, 3-(4-fluorobenzyl)-7-hydroxy-1-{[isobutyl(methyl)amino]methyl}-3,7,8,9-tetrahydro-6H-pyrrolo[2,3-c]-1,7-naphthyridin-6-one] | 44 nM | 1.6 nM
